Experimental data taken from patent publication US10927078B2, “Modulators of indoleamine 2,3-dioxygenase” (GLAXOSMITHKLINE INTELLECTUAL PROPERTY DEVELOPMENT LIMITED, priority 2017, dated 2021).

These compounds were tested against indoleamine 2, 3-dioxygenase (IDO1) (Homo sapiens, UniProt P14902) (assay: PBMC IDO1 assay (kynurenine via mass spectrometry)). Settings: not given.
Type: cell-based
Experimental: Compounds of the present invention were tested via high-throughput cellular assays utilizing detection of kynurenine via mass spectrometry and cytotoxicity as end-points. For the mass spectrometry and cytotoxicity assays, human peripheral blood mononuclear cells (PBMC) (PB003F; AllCells®, Alameda, Calif.) were stimulated with human interferon-γ (IFN-γ) (Sigma-Aldrich Corporation, St. Louis, Mo.) and lipopolysaccharide from Salmonella minnesota (LPS) (Invivogen, San Diego, Calif.) to induce the expression of indoleamine 2, 3-dioxygenase (IDO1). Compounds with IDO1 inhibitory properties decreased the amount of kynurenine produced by the cells via the tryptophan catabolic pathway. Cellular toxicity due to the effect of compound treatment was measured using CellTiter-Glo® reagent (CTG) (Promega Corporation, Madison, Wis.), which is based on luminescent detection of ATP, an indicator of metabolically active cells.
In preparation for the assays, test compounds were serially diluted 3-fold in DMSO from a typical top concentration of 5 mM and plated at 0.5 μL in 384-well, polystyrene, clear bottom, tissue culture treated plates with lids (Greiner Bio-One, Kremsmünster, Austria) to generate 11-point dose response curves. Low control wells (0% kynurenine or 100% cytotoxicity) contained either 0.5 μL of DMSO in the presence of unstimulated (-IFN-γ/-LPS) PBMCs for the mass spectrometry assay or 0.5 μL of DMSO in the absence of cells for the cytotoxicity assay, and high control wells (100% kynurenine or 0% cytotoxicity) contained 0.5 μL of DMSO in the presence of stimulated (+IFN-γ/+LPS) PBMCs for both the mass spectrometry and cytotoxicity assays.
Frozen stocks of PBMCs were washed and recovered in RPMI 1640 medium (Thermo Fisher Scientific, Inc., Waltham, Mass.) supplemented with 10% v/v heat-inactivated fetal bovine serum (FBS) (Thermo Fisher Scientific, Inc., Waltham, Mass.), and 1× penicillin-streptomycin antibiotic solution (Thermo Fisher Scientific, Inc., Waltham, Mass.). The cells were diluted to 1,000,000 cells/mL in the supplemented RPMI 1640 medium. 50 μL of either the cell suspension, for the mass spectrometry assay, or medium alone, for the cytotoxicity assay, were added to the low control wells, on the previously prepared 384-well compound plates, resulting in 50,000 cells/well or 0 cells/well respectively. IFN-γ and LPS were added to the remaining cell suspension at final concentrations of 100 ng/ml and 50 ng/ml respectively, and 50 μL of the stimulated cells were added to all remaining wells on the 384-well compound plates. The plates, with lids, were then placed in a 37° C., 5% CO2 humidified incubator for 2 days.
Following incubation, the 384-well plates were removed from the incubator and allowed to equilibrate to room temperature for 30 minutes. For the cytotoxicity assay, CellTiter-Glo® was prepared according to the manufacturer's instructions, and 40 μL were added to each plate well. After a twenty minute incubation at room temperature, luminescence was read on an EnVision® Multilabel Reader (PerkinElmer Inc., Waltham, Mass.). For the mass spectrometry assay, 10 μL of supernatant from each well of the compound-treated plates were added to 40 μL of acetonitrile, containing 10 μM of an internal standard for normalization, in 384-well, polypropylene, V-bottom plates (Greiner Bio-One, Kremsmünster, Austria) to extract the organic analytes. Following centrifugation at 2000 rpm for 10 minutes, 10 μL from each well of the acetonitrile extraction plates were added to 90 μL of sterile, distilled H2O in 384-well, polypropylene, V-bottom plates for analysis of kynurenine and the internal standard on the RapidFire 300 (Agilent Technologies, Santa Clara, Calif.) and 4000 QTRAP MS (SCIEX, Framingham, Mass.). MS data were integrated using Agilent Technologies' RapidFire Integrator software, and data were normalized for analysis as a ratio of kynurenine to the internal standard. […]

Chain of indoleamine 2, 3-dioxygenase (IDO1) (P14902 whole entry): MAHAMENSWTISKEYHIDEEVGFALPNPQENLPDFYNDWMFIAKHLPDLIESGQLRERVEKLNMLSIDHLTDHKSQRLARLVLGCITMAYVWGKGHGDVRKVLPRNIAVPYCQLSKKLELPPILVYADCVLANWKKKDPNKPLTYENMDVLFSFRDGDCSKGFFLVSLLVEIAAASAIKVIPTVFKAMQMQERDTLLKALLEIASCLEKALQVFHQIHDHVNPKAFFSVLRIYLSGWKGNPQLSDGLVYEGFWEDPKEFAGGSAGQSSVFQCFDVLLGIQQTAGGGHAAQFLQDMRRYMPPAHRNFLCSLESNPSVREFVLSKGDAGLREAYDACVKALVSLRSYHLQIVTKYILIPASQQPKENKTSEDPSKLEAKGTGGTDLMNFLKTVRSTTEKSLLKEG

| SMILES | IC50 |
| --- | --- |
| O=C(NC(c1ccncc1)C1CCN(C(=O)Oc2cccnc2F)CC1)c1ccc(F)cc1 (stereo not shown) [Example 72, 2-fluoropyridin-3-yl 4-{[(4-fluorophenyl)formamido](pyridin-4-yl)methyl}piperidine-1-carboxylate] | 158 nM |
| COCCC[C@@H](NC(=O)c1ccc(F)cc1)C1CCN(C(=O)Oc2cccnc2F)CC1 [Example 76, 2-fluoropyridin-3-yl 4-[(1R)-1-[(4-fluorophenyl)formamido]-4-methoxybutyl]piperidine-1-carboxylate] | 158 nM |
| O=C(NC(c1ccncc1)C1CCN(C(=O)Oc2cccnc2)CC1)c1ccc(F)cc1 (stereo not shown) [Example 87, pyridin-3-yl 4-{[(4-fluorophenyl)formamido](pyridin-4-yl)methyl}piperidine-1-carboxylate] | 631 nM |

Same assay, conditions: human PBMC stimulated with IFN-γ and LPS, 2 days, kynurenine by mass spectrometry; recorded as pIC50; read-out: PBMC PXC50_ (converted)

| SMILES | IC50 |
| --- | --- |
| Cc1c(F)cccc1OC(=O)N1CCC(C(NC(=O)c2ccc(F)cc2)C2CC2)CC1 (stereo not shown) [Example 61, 3-fluoro-2-methylphenyl 4-{cyclopropyl[(4-fluorophenyl)formamido]methyl}piperidine-1-carboxylate] | 63.1 nM |
| O=C(NC(c1ccncc1)C1CCN(C(=O)Oc2ccccc2)CC1)c1ccc(F)cc1 (stereo not shown) [Example 65, phenyl 4-{[(4-fluorophenyl)formamido](pyridin-4-yl)methyl}piperidine-1-carboxylate] | 100 nM |
| O=C(NC(C1CC1)C1CCN(C(=O)Oc2ccccc2)CC1)c1ccc(F)cc1 (stereo not shown) [Example 66, phenyl 4-{cyclopropyl[(4-fluorophenyl)formamido]methyl}piperidine-1-carboxylate] | 100 nM |
| O=C(NC(C1CC1)C1CCN(C(=O)Oc2ccnc(F)c2)CC1)c1ccc(F)cc1 (stereo not shown) [Example 71, 2-fluoropyridin-4-yl 4-{cyclopropyl[(4-fluorophenyl)formamido]methyl}piperidine-1-carboxylate] | 158 nM |
| O=C(NC(c1ccccc1)C1CCN(C(=O)Oc2ccccc2)CC1)c1ccc(C(F)(F)F)cc1 (stereo not shown) [Example 73, phenyl 4-[phenyl({[4-(trifluoromethyl)phenyl]formamido})methyl]piperidine-1-carboxylate] | 158 nM |
| O=C(NC(c1ccncc1)C1CCN(C(=O)Oc2ccccc2)CC1)c1ccccc1 (stereo not shown) [Example 77, phenyl 4-[(phenylformamido)(pyridin-4-yl)methyl]piperidine-1-carboxylate] | 200 nM |
| C#Cc1ccc(C(=O)NC(c2ccccc2)C2CCN(C(=O)OC(C)(C)C)CC2)cc1 (stereo not shown) [Example 78, tert-butyl 4-{[(4-ethynylphenyl)formamido](phenyl)methyl}piperidine-1-carboxylate] | 251 nM |
| O=C(NC(C1CC1)C1CCN(C(=O)Oc2ccncc2)CC1)c1ccc(F)cc1 (stereo not shown) [Example 81, pyridin-4-yl 4-{cyclopropyl[(4-fluorophenyl)formamido]methyl}piperidine-1-carboxylate] | 398 nM |
| CC(C)(C)OC(=O)N1CCC(C(NC(=O)c2cccc3cc[nH]c23)c2ccccc2)CC1 (stereo not shown) [Example 85, tert-butyl 4-{[(1H-indol-7-yl)formamido](phenyl)methyl}piperidine-1-carboxylate] | 631 nM |
| COc1cc(OC(=O)N2CCC(C(NC(=O)c3ccc(F)cc3)C3CC3)CC2)ccn1 (stereo not shown) [Example 86, 2-methoxypyridin-4-yl 4-{cyclopropyl[(4-fluorophenyl)formamido]methyl}piperidine-1-carboxylate] | 631 nM |
| O=C(NC(c1ccccc1)C1CCN(C(=O)Oc2ccccc2)CC1)c1ccc(C(F)(F)F)cn1 (stereo not shown) [Example 88, phenyl 4-[phenyl({[5-(trifluoromethyl)pyridin-2-yl]formamido})methyl]piperidine-1-carboxylate] | 631 nM |

Next, values leading:

| IC50 | SMILES |
| --- | --- |
| 50.1 nM | CC(C)CC(NC(=O)c1ccc(F)cc1)C1CCN(C(=O)Oc2ccc(Cl)cc2)CC1 (stereo not shown) [Example 59, 4-chlorophenyl 4-{1-[(4-fluorophenyl)formamido]-3-methylbutyl}piperidine-1-carboxylate] |
| 50.1 nM | COc1nccc(OC(=O)N2CCC(C(CC(C)C)NC(=O)c3ccc(F)cc3)CC2)c1F (stereo not shown) [Example 60, 3-fluoro-2-methoxypyridin-4-yl 4-{1-[(4-fluorophenyl)formamido]-3-methylbutyl}piperidine-1-carboxylate] |
| 63.1 nM | CC(C)CC(NC(=O)c1ccc(F)cc1)C1CCN(C(=O)OCc2ccccc2)CC1 (stereo not shown) [Example 62, benzyl 4-{1-[(4-fluorophenyl)formamido]-3-methylbutyl}piperidine-1-carboxylate] |
| 79.4 nM | CC(C)CC(NC(=O)c1ccc(Cl)cc1)C1CCN(C(=O)OCc2nccs2)CC1 (stereo not shown) [Example 64, (1,3-thiazol-2-yl)methyl 4-{1-[(4-chlorophenyl)formamido]-3-methylbutyl}piperidine-1-carboxylate] |
| 100 nM | CC(C)C[C@H](NC(=O)c1ccc(Cl)cc1)C1CCN(C(=O)Oc2ccccc2)CC1 [Example 67, phenyl 4-[(1S)-1-[(4-chlorophenyl)formamido]-3-methylbutyl]piperidine-1-carboxylate] |
| 126 nM | Cc1c(F)cccc1OC(=O)N1CCC([C@@H](C)NC(=O)c2ccc(Cl)cc2)CC1 [Example 68, 3-fluoro-2-methylphenyl 4-[(1R)-1-[(4-chlorophenyl)formamido]ethyl]piperidine-1-carboxylate] |
| 126 nM | CC(C)C[C@H](NC(=O)c1ccc(F)cc1)C1CCN(C(=O)Oc2ccccc2)CC1 [Example 69, phenyl 4-[(1S)-1-[(4-fluorophenyl)formamido]-3-methylbutyl]piperidine-1-carboxylate] |
| 158 nM | CC(NC(=O)c1ccc(F)cc1)C1CCN(C(=O)Oc2ccccc2)CC1 (stereo not shown) [Example 74, phenyl 4-{1-[(4-fluorophenyl)formamido]ethyl}piperidine-1-carboxylate] |
| 158 nM | CC(C)C[C@H](NC(=O)c1ccccc1)C1CCN(C(=O)Oc2ccccc2)CC1 [Example 75, phenyl 4-[(1S)-3-methyl-1-(phenylformamido)butyl]piperidine-1-carboxylate] |
| 316 nM | CC(C)CC(NC(=O)c1ccc(F)cc1)C1CCN(C(=O)Oc2ccnc3ccccc23)CC1 (stereo not shown) [Example 79, quinolin-4-yl 4-{1-[(4-fluorophenyl)formamido]-3-methylbutyl}piperidine-1-carboxylate] |
| 316 nM | Cc1c(F)cccc1OC(=O)N1CCC([C@@H](CCCO)NC(=O)c2ccc(F)cc2)CC1 [Example 80, 3-fluoro-2-methylphenyl 4-[(1R)-1-[(4-fluorophenyl)formamido]-4-hydroxybutyl]piperidine-1-carboxylate] |
| 398 nM | CC(C)OCC(NC(=O)c1ccc(F)cc1)C1CCN(C(=O)Oc2ccccc2)CC1 (stereo not shown) [Example 82, phenyl 4-{1-[(4-fluorophenyl)formamido]-2-(propan-2-yloxy)ethyl}piperidine-1-carboxylate] |
| 501 nM | CC(C)CC(NC(=O)c1nnc(Cl)s1)C1CCN(C(=O)Oc2ccccc2)CC1 (stereo not shown) [Example 83, phenyl 4-{1-[(5-chloro-1,3,4-thiadiazol-2-yl)formamido]-3-methylbutyl}piperidine-1-carboxylate] |
| 501 nM | CC(C)CC(NC(=O)c1ccc(F)cc1)C1CCN(C(=O)OC2CCNc3ccccc32)CC1 (stereo not shown) [Example 84, 1,2,3,4-tetrahydroquinolin-4-yl 4-{1-[(4-fluorophenyl)formamido]-3-methylbutyl}piperidine-1-carboxylate] |
